# Source: patent publication US12667584B2, “Adenosine analog and its use in regulating the circadian clock” (NATIONAL INSTITUTE OF BIOLOGICAL SCIENCES, BEIJING, priority 2017, dated 2026)
# Tests used:
# [1] = Sleep phenotype by locomoter activity and electrophysiological recording; conditions: in vivo
# Source text: This is considered as a positive side-effect to adapt to jet-lag, which causes more problems on the sleep than arousal side. […] This work provide immediate and important practical applications, including use the disclosed compounds to assist humans who suffer jet-lag or shift-work can use this drug to adjust the clock-phase, and simultaneously tune the sleep-wake pattern, particularly coupled with caffeine ingestion.
# [2] = HPLC-MASS analysis of CSF after tail vein injection; type: in vivo, rat; conditions: 15 mg/kg tail vein
# Description: HPLC-MASS analysis CSF: 8 W SD rats are bought from Beijing Vital River, housed in individually cage in a temperature- and humidity-controlled SPF facility, with ad libitum access to food and water. The animals were entrained under 12 h light/dark photoperiod for two weeks to synchronize the endogenous circadian clock of the mice to the ambient light-dark cycle, light intensity is about 50˜100 lux. […] Finally, each 450 μl supernatant was collected into a new 1.5 ml tube, dried with SpeedVac and analyzed with HPLC-MASS facility.
# To test whether cordycepin function in vivo, we firstly tested luciferase signal level by live imaging of Per2:LUC mice after intraperitoneal injection of 15 mg/kg cordycepin or DMSO. […] Prior evaluation the jet-leg cure ability of cordycepin, we detected whether cordycepin and it's prodrug pro-CA03 can penetrate BBB. We injected cordycepin or pro-CA03 via tail vein and time course sampled CSF and analyzed cordycepin pro-CA03 level with HPLC-MASS method. […] Finally we evaluated the jet-leg cure ability of cordycepin, pro-CA03 and Pro-CA04 with mice behavioral experiment. […]
# Per2::Luc = experiment: In-vivo imaging of luciferase signal in Per2::Luc knockin mice; parameters: species or system mouse
# Description: Drug injection and in-vivo imaging analysis: mPer2Luciferase knockin mice were housed in Germ Free Animal Facility, under 12 h light/dark photoperiod, with food and water ad libitum. 8 week-old male mPer2Luciferase knockin mice were intraperitoneal injection with 15 mg/kg bw CA03 or DMSO. CA03 was firstly dissolved in DMSO to the concentration of 200 μg/μl, then dilute with saline to the final concentration of 1000 μg/ml for intraperitoneal injection. 1 h later, d-luciferin (Gold Bio.) was intraperitoneally injected. Relative luciferase activity were imaged on IVIS Lumina III system and analysed with in-vivo imaging software (PerkinElmer). […]
# Next, the inventors sought to determine whether the clock effects of cordycepin can be recaptured in vivo. […] This observation is especially true when nascent RNA levels were measured, highlighting the first-order, inductive response in E-box genes as previously proposed(FIG. 2B).
# To test whether cordycepin function in vivo, we firstly tested luciferase signal level by live imaging of Per2:LUC mice after intraperitoneal injection of 15 mg/kg cordycepin or DMSO. […] Prior evaluation the jet-leg cure ability of cordycepin, we detected whether cordycepin and it's prodrug pro-CA03 can penetrate BBB. We injected cordycepin or pro-CA03 via tail vein and time course sampled CSF and analyzed cordycepin pro-CA03 level with HPLC-MASS method. […]
structure (smiles),measurement,setting,value
"Nc1ncnc2c1ncn2[C@@H]1O[C@H](CO)C[C@H]1O [Cordycepin, 3′-deoxy-adenosine]",sleep phenotype,[1],leads to a sleep phenotype
same,time of peak concentration in CSF after injection,[2],1 min
same,increase of luciferase signal in liver compared with DMSO control,Per2::Luc; 15 mg/kg intraperitoneal,more than 4 folds
same,time to induction of luciferase signal after drug administration,Per2::Luc; i.p. at ZT4,≤ 1 h
